Measurements reported in publication PMC8594567 (Journal of the American Chemical Society, 2021).
Read-outs that look alike come from different tables or passages of the source.

Key:
CYP3A5 G480L = CYP3A5 G480L (Homo sapiens, UniProt P20815, G480L); experiment: Cell-based P450-Glo CYP3A mutant inhibition assay, CYP3A5 G480L; details: G480L substitution; 293T/17 cells
CYP3A5 G480S = CYP3A5 G480S (Homo sapiens, UniProt P20815, G480S); experiment: Cell-based P450-Glo CYP3A mutant inhibition assay, CYP3A5 G480S; details: G480S substitution; 293T/17 cells
CYP3A5^G480A = CYP3A5^G480A (Homo sapiens, UniProt P20815, G480A); experiment: Cell-based P450-Glo CYP3A mutant inhibition assay, CYP3A5 G480A; details: 293T/17 cells
CYP3A5^G214A/G480A = CYP3A5^G214A/G480A (Homo sapiens, UniProt P20815, G214A/G480A); experiment: Cell-based P450-Glo CYP3A mutant inhibition assay, CYP3A5 G214A/G480A; details: 0.08–20 μM CBZ; 293T/17 cells
CYP3A4^WT = CYP3A4^WT (Homo sapiens, UniProt P08684); experiment: Cell-based P450-Glo CYP3A mutant inhibition assay, CYP3A4 WT; details: 293T/17 cells; also prior data ref 30
CYP3A4^D214G = CYP3A4^D214G (Homo sapiens, UniProt P08684, D214G); experiment: Cell-based P450-Glo CYP3A mutant inhibition assay, CYP3A4 D214G; details: 293T/17 cells
CYP3A4^F108L = CYP3A4^F108L (Homo sapiens, UniProt P08684, F108L); experiment: Cell-based P450-Glo CYP3A mutant inhibition assay, CYP3A4 F108L; details: relative to CYP3A4^WT; 293T/17 cells
CYP3A5 [1] = target: T1, CYP3A5 (Homo sapiens, UniProt P20815); experiment: Time-dependent inhibition assay; format: biochemical; details: pre-incubation 0 or 30 mins at room temperature
purified human CYP3A5 [2] = target: T2, purified human CYP3A5 (Homo sapiens, UniProt P20815); details: 10 min
CYP3A4 = CYP3A4 (Homo sapiens, UniProt P08684); experiment: UV-Vis spectroscopy binding assay, CYP3A4; details: for increase in Ks on removal of the region B group: CYP3A4, region B-deleted analog vs parent
CYP3A5 [3] = target: T1, CYP3A5; experiment: UV-Vis spectroscopy binding assay, CYP3A5
purified human CYP3A5 [4] = target: T2, purified human CYP3A5; experiment: Biochemical P450-Glo CYP3A inhibition assay, CYP3A5
purified human CYP3A4 [5] = target: T3, purified human CYP3A4 (Homo sapiens, UniProt P08684); experiment: Biochemical P450-Glo CYP3A inhibition assay, CYP3A4
CYP3A5 [6] = target: T1, CYP3A5; experiment: in vitro
purified human CYP3A4 [7] = target: T3, purified human CYP3A4; details: 10 min

In the case of `CCC(=O)O[C@]1(C(=O)CCl)[C@@H](C)C[C@H]2[C@@H]3CCC4=CC(=O)C=C[C@]4(C)[C@@]3(F)[C@@H](O)C[C@@]21C` [CBZ, Clobetasol propionate], the “reduction in potency vs WT” value (CYP3A5 G480L) is reported as “at least 20 fold”, the “reduction in potency vs WT” value (CYP3A5 G480S) is reported as “at least 20 fold” and the “inhibition compared with CYP3A5^WT” value (CYP3A5^G480A) is reported as “to the same extent as was CYP3A5^WT”. For the same molecule, the “effect on enzyme activity” value (CYP3A5^G214A/G480A) was “weakly activated”, the “CYP3A4 inhibition” value (CYP3A4^WT) was “can be inhibited at high CBZ concentrations” and the “inhibition compared with CYP3A4^WT” value (CYP3A4^D214G) was “identically”. The “effect of the F108L substitution on inhibitory potency” value (CYP3A4^F108L) was “substantially weakened the inhibitory potency”, the “time-dependent inhibition of CYP3A5” value (CYP3A5 [1]) was “not time-dependent inhibitors of CYP3A5” and the “CYP3A5 inhibition” value (purified human CYP3A5 [2]) was “potent and selective inhibitor of CYP3A5”. The “increase in Ks on removal of the region B group” value (“increase in Ks on removal” below) (CYP3A4) was “approximately 20 fold”.

For `CCC(=O)OCC(=O)[C@@]1(OC(=O)CC)[C@@H](C)C[C@H]2[C@@H]3CCC4=CC(=O)C=C[C@]4(C)[C@@]3(F)[C@@H](O)C[C@@]21C` [betamethasone dipropionate], the “CYP3A5 inhibition” value (purified human CYP3A5 [2]) was “consistently weaker CYP3A5 inhibition”.

For `C[C@H]1C[C@H]2[C@@H]3CCC4=CC(=O)C=C[C@]4(C)[C@@]3(F)[C@@H](O)C[C@]2(C)[C@@]1(O)C(=O)CCl` [clobetasol, Clobetasol], the “Ks relative to the counterpart with region B group” value (CYP3A5 [3]; dexamethasone acetate vs difluprednate, clobetasol vs CBZ, Ks higher) was greater than 100 fold, the “CYP3A5 inhibition” value (purified human CYP3A5 [4]; P450-Glo biochemical assay) was “failed to inhibit CYP3A5 even at the highest concentration tested” and the IC50 (purified human CYP3A4 [5]; purified full-length CYP3A4, luciferin-IPA) was 13 ± 4 µM.

With `CCCC(=O)O[C@]1(C(=O)CCl)[C@@H](C)C[C@H]2[C@@H]3CCC4=CC(=O)C=C[C@]4(C)[C@@]3(F)C(=O)C[C@@]21C` [clobetasone butyrate, Clobetasone butyrate] the “Ks for CYP3A4 compared with CBZ” value (CYP3A4) was “maintained similar Ks value”, the “weaker CYP3A5 inhibition than CBZ (IC50 ratio)” value (purified human CYP3A5 [4]; IC50 of analog relative to CBZ) was “approximately 5 fold” and the “CYP3A4 inhibition” value (purified human CYP3A4 [5]; P450-Glo biochemical assay) was “slightly enhanced CYP3A4 inhibition”.

With `C[C@@H]1C[C@H]2[C@@H]3CCC4=CC(=O)C=C[C@]4(C)[C@@]3(F)[C@@H](O)C[C@]2(C)[C@H]1C(=O)CO` [desoximetasone] the “CYP3A5 inhibition” value (purified human CYP3A5 [2]) was “no or weaker CYP3A5 inhibition than that of CBZ”.

For `CC(=O)OCC(=O)[C@@]1(O)[C@H](C)C[C@H]2[C@@H]3CCC4=CC(=O)C=C[C@]4(C)[C@@]3(F)[C@@H](O)C[C@@]21C` [dexamethasone acetate], the “Ks relative to the counterpart with region B group” value (CYP3A5 [3]; human, pH 7.4) was greater than 100 fold and the inhibition at 10 min, 300 µM (CYP3A5 [6]) was 35%.

With `CC(=O)OCC(=O)[C@@]1(OC(C)=O)[C@@H](C)C[C@H]2[C@@H]3C[C@H](F)C4=CC(=O)C=C[C@]4(C)[C@@]3(F)[C@@H](O)C[C@@]21C` [diflorasone] the “CYP3A5 inhibition” value (purified human CYP3A5 [2]) was “no or weaker CYP3A5 inhibition than that of CBZ” and the “CYP3A4 inhibition” value (purified human CYP3A4 [7]) was “still capable of inhibiting CYP3A4 at high concentrations”.

In the case of `CCCC(=O)O[C@]1(C(=O)COC(C)=O)CC[C@H]2[C@@H]3C[C@H](F)C4=CC(=O)C=C[C@]4(C)[C@@]3(F)[C@@H](O)C[C@@]21C` [difluprednate], the “increase in Ks on removal” value (CYP3A5 [3]; human, pH 7.4) is reported as greater than 100 fold, the “CYP3A5 inhibition” value (purified human CYP3A5 [2]) is reported as “strongest and most selective CYP3A5 inhibitor among all compounds we tested” and the “weakening of CYP3A4 inhibition on deleting the region B group” value (purified human CYP3A4 [7]) is reported as “approximately 10 fold”. For the same molecule, the “increase in Ks on removal” value (CYP3A4) was 3 fold.

With `CCOC(=O)O[C@]1(C(=O)COC(=O)CC)CC[C@H]2[C@@H]3CCC4=CC(=O)C=C[C@]4(C)[C@H]3[C@@H](O)C[C@@]21C` [prednicarbate, Prednicarbate] the “CYP3A5 inhibition” value (purified human CYP3A5 [2]) was “consistently weaker CYP3A5 inhibition”.
